Test results from PubChem BioAssay (NCI).
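Values below derive from 48-hour exposures of cells grown in 96-well plates, with endpoints linearly interpolated between the two concentrations bracketing the appropriate inhibition level. TGI: concentration producing complete growth inhibition.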

Legend:
Assay in all cases: DTP human tumour cell line panel, 48 h
786-0 renal = system: 786-0 renal
A549 NSCLC = system: A549 NSCLC
COLO 205 colon = system: COLO 205 colon
DMS 114 small cell lung = system: DMS 114 small cell lung
DMS 273 small cell lung = system: DMS 273 small cell lung
EKVX NSCLC = system: EKVX NSCLC
HCC-2998 colon = system: HCC-2998 colon
HCT-116 colon = system: HCT-116 colon
HCT-15 colon = system: HCT-15 colon
HOP-92 NSCLC = system: HOP-92 NSCLC
HT29 colon = system: HT29 colon
IGROV1 ovarian = system: IGROV1 ovarian
K-562 leukemia = system: K-562 leukemia
KM12 colon = system: KM12 colon
KM20L2 colon = system: KM20L2 colon
LXFL 529 NSCLC = system: LXFL 529 NSCLC
M19-MEL melanoma = system: M19-MEL melanoma
MALME-3M melanoma = system: MALME-3M melanoma
MOLT-4 leukemia = system: MOLT-4 leukemia
NCI-H226 lung = system: NCI-H226 lung
NCI-H23 lung = system: NCI-H23 lung
NCI-H522 lung = system: NCI-H522 lung
OVCAR-3 ovarian = system: OVCAR-3 ovarian
OVCAR-4 ovarian = system: OVCAR-4 ovarian
OVCAR-5 ovarian = system: OVCAR-5 ovarian
OVCAR-8 ovarian = system: OVCAR-8 ovarian
RPMI-8226 leukemia = system: RPMI-8226 leukemia
RXF 393 renal = system: RXF 393 renal
SF-268 CNS = system: SF-268 CNS
SF-295 CNS = system: SF-295 CNS
SF-539 CNS = system: SF-539 CNS
SK-MEL-2 melanoma = system: SK-MEL-2 melanoma
SK-MEL-28 melanoma = system: SK-MEL-28 melanoma
SK-MEL-5 melanoma = system: SK-MEL-5 melanoma
SK-OV-3 ovarian = system: SK-OV-3 ovarian
SN12C renal = system: SN12C renal
SNB-19 CNS = system: SNB-19 CNS
SNB-75 CNS = system: SNB-75 CNS
SNB-78 CNS = system: SNB-78 CNS
SW-620 colon = system: SW-620 colon
TK-10 renal = system: TK-10 renal
U251 CNS = system: U251 CNS
UACC-257 melanoma = system: UACC-257 melanoma
UACC-62 melanoma = system: UACC-62 melanoma
UO-31 renal = system: UO-31 renal
CCRF-CEM leukemia = system: CCRF-CEM leukemia
HL-60(TB) leukemia = system: HL-60(TB) leukemia
HOP-62 NSCLC = system: HOP-62 NSCLC
M14 melanoma = system: M14 melanoma
NCI-H460 lung = system: NCI-H460 lung
SR leukemia = system: SR leukemia
A498 renal = system: A498 renal
ACHN renal = system: ACHN renal
CAKI-1 renal = system: CAKI-1 renal
LOX IMVI melanoma = system: LOX IMVI melanoma

Measured: TGI

CCOC(=O)c1cnc2oc(-c3ccc(OC)cc3)nn2c1=O
not listed: CCRF-CEM leukemia | HL-60(TB) leukemia | HOP-62 NSCLC | M14 melanoma | NCI-H460 lung | SR leukemia | A498 renal | ACHN renal | CAKI-1 renal | LOX IMVI melanoma
> 100 µM: all other assays above

COc1ccc(C2C(Cl)C(=O)N2NC(=O)c2ccccc2O)cc1 (stereo unspecified)
not listed: 786-0 renal | DMS 273 small cell lung | HCC-2998 colon | HCT-15 colon | NCI-H226 lung | OVCAR-5 ovarian | SNB-78 CNS | A498 renal | ACHN renal | CAKI-1 renal | LOX IMVI melanoma
> 100 µM: all other assays above

CC1(SCC(N)C(=O)O)CC(=O)NC1=O (stereo unspecified)
not listed: MALME-3M melanoma | OVCAR-5 ovarian | M14 melanoma
> 100 µM: all other assays above
